Two compounds from BindingDB's records for doi:10.3109/14756360903027816 (The University of Montana, 2010) can be followed below.

Molecules are shown by their SMILES. pIC50: −log10 of the molar value.

This test concerns the target T1, Acetylcholinesterase (Mus musculus, UniProt P21836).
T1 sequence (P21836 whole entry): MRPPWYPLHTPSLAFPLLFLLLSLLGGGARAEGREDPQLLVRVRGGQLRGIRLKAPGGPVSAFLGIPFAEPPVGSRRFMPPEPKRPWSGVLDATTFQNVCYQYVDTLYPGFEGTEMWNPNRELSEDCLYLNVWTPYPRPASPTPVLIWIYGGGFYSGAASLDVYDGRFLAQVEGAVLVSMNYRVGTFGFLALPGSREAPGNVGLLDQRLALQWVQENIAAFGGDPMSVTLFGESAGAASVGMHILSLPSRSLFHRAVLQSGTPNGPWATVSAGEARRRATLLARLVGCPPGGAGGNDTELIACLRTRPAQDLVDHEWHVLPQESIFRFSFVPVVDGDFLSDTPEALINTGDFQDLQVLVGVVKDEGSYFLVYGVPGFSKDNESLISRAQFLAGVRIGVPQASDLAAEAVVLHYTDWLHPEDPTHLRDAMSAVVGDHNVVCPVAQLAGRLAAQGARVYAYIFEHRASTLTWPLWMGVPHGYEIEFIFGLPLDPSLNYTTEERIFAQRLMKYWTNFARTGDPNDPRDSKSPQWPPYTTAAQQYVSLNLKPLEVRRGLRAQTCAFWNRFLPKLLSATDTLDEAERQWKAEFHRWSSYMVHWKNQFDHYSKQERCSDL
The experiment in a line: AChE Assay. To be noted: pH 7.6; 20 °C. As for the experimental part:
The inactivation of AChEs was determined using a colorimetric assay [Ellman et al., Biochem. Pharmacol., 7:88-95]. […] DTNB solution and a solution of AChE yielding a 0.1 Abs unit/min rate in PBS (2.80 mL; pH 7.6) were placed in a cuvette at 20°C. To this solution was added either: (a) 10 μL of ACN as the control, or (b) 10 μL of ligand solution (10 mM in ACN). […] The final concentrations of the reactants during enzyme assay were: 0.33 mM DTNB, 0.59 mM ATCh-I, 0.58 mM NaHCO3, and 0.05 mM inhibitor.

Broadly, the pIC50 is the negative decadic logarithm of the IC50, by convention in mol/L. A lower pIC50 goes with a high IC50. In the case of `C#CCNS(=O)(=O)c1ccc(C2=c3cc4c5c(c3Oc3c2cc2c6c3CCCN6CCC2)CCC[N+]=5CCC4)c(S(=O)(=O)[O-])c1` [Texas Red propargyl sulfonamide (7)], the pIC50 is 6.15.
In turn, `C#CCNS(=O)(=O)c1ccc(-c2c3ccc(=[N+](CC)CC)cc-3oc3cc(N(CC)CC)ccc23)c(S(=O)(=O)[O-])c1` [Lissamine propargyl sulfonamide (6)] gave a negative-log IC50 (pIC50) of 7.30.
